Results: ChEMBL document CHEMBL1201862, “PubChem BioAssay data set” (2004)
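1) Cells in 96-well plates. 2) Compound, 48 h, 5 concentrations. 3) Linear interpolation between surrounding doses. 4) Unreached endpoint = highest concentration. GI50: concentration for 50% inhibition of growth.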 Calls of active or inactive are those of the source. Rule as the data show it: active = GI50 up to about 1.1 µM and inactive = higher.

Assays:
Test in all cases: NCI-60 cell line screen, 48 h
M19-MEL = system: M19-MEL
UACC-62 = system: UACC-62
HOP-18 = system: HOP-18
NCI-H460 = system: NCI-H460
SW-620 = system: SW-620
ACHN = system: ACHN
SF-268 = system: SF-268
NCI-H226 = system: NCI-H226
HCT-15 = system: HCT-15
LOX IMVI = system: LOX IMVI
OVCAR-4 = system: OVCAR-4
NCI-H23 = system: NCI-H23
SF-295 = system: SF-295
HT-29 = system: HT-29
XF498 = system: XF498
COLO 205 = system: COLO 205
HOP-92 = system: HOP-92
UO-31 = system: UO-31
SN12C = system: SN12C
HCT-116 = system: HCT-116
OVCAR-5 = system: OVCAR-5
SNB-75 = system: SNB-75
SNB-78 = system: SNB-78
786-0 = system: 786-0
HOP-62 = system: HOP-62
A498 = system: A498
SK-MEL-2 = system: SK-MEL-2
RXF 393 = system: RXF 393
LXFL 529 = system: LXFL 529
SK-OV-3 = system: SK-OV-3
DMS-114 = system: DMS-114
KM-20L2 = system: KM-20L2
CCRF-CEM = system: CCRF-CEM
OVCAR-8 = system: OVCAR-8
Malme-3M = system: Malme-3M
MOLT-4 = system: MOLT-4
M14 = system: M14
NCI-H522 = system: NCI-H522
DLD-1 = system: DLD-1
SNB-19 = system: SNB-19
SF-539 = system: SF-539
OVCAR-3 = system: OVCAR-3
HCC 2998 = system: HCC 2998
K562 = system: K562
EKVX = system: EKVX
U-251 = system: U-251
TK-10 = system: TK-10
SK-MEL-28 = system: SK-MEL-28
UACC-257 = system: UACC-257
SK-MEL-5 = system: SK-MEL-5
A549 = system: A549
IGROV-1 = system: IGROV-1
KM12 = system: KM12
CAKI-1 = system: CAKI-1
SR = system: SR
RPMI-8226 = system: RPMI-8226
HL-60 = system: HL-60

c1cc2c(cc1C1OCC3C(c4ccc5c(c4)OCO5)OCC13)OCO2 (stereo unspecified)
GI50 (M19-MEL): 51.2 µM (inactive)
GI50 (UACC-62): 50 µM (inactive)
GI50 (HOP-18): > 100 µM (inactive)
GI50 (NCI-H460): 75.3 µM (inactive)
GI50 (SW-620): > 100 µM (inactive)
GI50 (ACHN): 80.7 µM (inactive)
GI50 (SF-268): > 100 µM (inactive)
GI50 (NCI-H226): 58.3 µM (inactive)
GI50 (HCT-15): 50.6 µM
GI50 (LOX IMVI): 73.1 µM (inactive)
GI50 (OVCAR-4): > 100 µM (inactive)
GI50 (NCI-H23): 38.5 µM (inactive)
GI50 (SF-295): 87.1 µM (inactive)
GI50 (HT-29): 35.6 µM (inactive)
GI50 (XF498): 28.8 µM (inactive)
GI50 (COLO 205): 67.8 µM (inactive)
GI50 (HOP-92): 69.7 µM (inactive)
GI50 (UO-31): 57 µM (inactive)
GI50 (SN12C): 92.3 µM (inactive)
GI50 (HCT-116): 51.5 µM (inactive)
GI50 (OVCAR-5): 55.6 µM (inactive)
GI50 (SNB-75): 50.8 µM (inactive)
GI50 (SNB-78): > 100 µM (inactive)
GI50 (786-0): > 100 µM (inactive)
GI50 (HOP-62): > 100 µM (inactive)
GI50 (A498): 55.3 µM (inactive)
GI50 (SK-MEL-2): 98.2 µM (inactive)
GI50 (RXF 393): 57.9 µM (inactive)
GI50 (LXFL 529): 37.8 µM (inactive)
GI50 (SK-OV-3): > 100 µM (inactive)
GI50 (DMS-114): 40.4 µM (inactive)
GI50 (KM-20L2): 35.8 µM (inactive)
GI50 (CCRF-CEM): 32.3 µM (inactive)
GI50 (OVCAR-8): 85.3 µM (inactive)
GI50 (Malme-3M): 61.9 µM (inactive)
GI50 (MOLT-4): 34.1 µM (inactive)
GI50 (M14): 66.8 µM (inactive)
GI50 (NCI-H522): 65.8 µM (inactive)
GI50 (DLD-1): 65.3 µM (inactive)
GI50 (SNB-19): > 100 µM (inactive)
GI50 (SF-539): > 100 µM (inactive)
GI50 (OVCAR-3): 84.1 µM (inactive)
GI50 (HCC 2998): 71.1 µM (inactive)
GI50 (K562): 35.6 µM (inactive)
GI50 (EKVX): 62.4 µM (inactive)
GI50 (U-251): 83 µM (inactive)
GI50 (TK-10): 78.9 µM (inactive)
GI50 (SK-MEL-28): 64.7 µM (inactive)
GI50 (UACC-257): 53.8 µM (inactive)
GI50 (SK-MEL-5): 28.4 µM (inactive)
GI50 (A549): 54 µM (inactive)
GI50 (IGROV-1): 75.2 µM (inactive)
GI50 (KM12): 58.9 µM (inactive)

CO[C@@H]1C=C[C@@]23c4cc5c(cc4CN(C[C@@H]2O)[C@H]3C1)OCO5 [(+)-HAEMANTHAMINE]
GI50 (M19-MEL): 16.6 µM (inactive)
GI50 (UACC-62): 12.9 µM (inactive)
GI50 (HOP-18): 21.8 µM (inactive)
GI50 (NCI-H460): 15.7 µM (inactive)
GI50 (SW-620): 15.5 µM (inactive)
GI50 (ACHN): 5.13 µM (inactive)
GI50 (SF-268): 29.7 µM (inactive)
GI50 (NCI-H226): 25.4 µM (inactive)
GI50 (HCT-15): 17.4 µM
GI50 (LOX IMVI): 6.38 µM (inactive)
GI50 (OVCAR-4): 3.85 µM (inactive)
GI50 (NCI-H23): 23.6 µM (inactive)
GI50 (SF-295): 19.1 µM (inactive)
GI50 (HT-29): 10.4 µM (inactive)
GI50 (XF498): 16.7 µM (inactive)
GI50 (HOP-92): 14.3 µM (inactive)
GI50 (UO-31): 16.5 µM (inactive)
GI50 (CAKI-1): 6.22 µM (inactive)
GI50 (SN12C): 16.1 µM (inactive)
GI50 (OVCAR-5): 41.9 µM (inactive)
GI50 (SNB-75): 9.06 µM (inactive)
GI50 (SNB-78): 52.5 µM (inactive)
GI50 (786-0): 20.1 µM (inactive)
GI50 (SK-MEL-2): 9.16 µM (inactive)
GI50 (RXF 393): 18.7 µM (inactive)
GI50 (LXFL 529): 13.6 µM (inactive)
GI50 (SR): 15 µM (inactive)
GI50 (SK-OV-3): 19.5 µM (inactive)
GI50 (DMS-114): 79.6 µM (inactive)
GI50 (KM-20L2): 11.7 µM (inactive)
GI50 (CCRF-CEM): 8.34 µM (inactive)
GI50 (OVCAR-8): 27.9 µM (inactive)
GI50 (Malme-3M): 14.6 µM (inactive)
GI50 (MOLT-4): 6.47 µM (inactive)
GI50 (M14): 5.94 µM (inactive)
GI50 (NCI-H522): 12.1 µM (inactive)
GI50 (DLD-1): 15.3 µM (inactive)
GI50 (SNB-19): 33.3 µM (inactive)
GI50 (SF-539): 28.6 µM (inactive)
GI50 (RPMI-8226): 29.6 µM (inactive)
GI50 (OVCAR-3): 46.6 µM (inactive)
GI50 (HCC 2998): 15.6 µM (inactive)
GI50 (K562): 7.67 µM (inactive)
GI50 (EKVX): 38 µM (inactive)
GI50 (HL-60): 14 µM (inactive)
GI50 (U-251): 15 µM (inactive)
GI50 (TK-10): 30.8 µM (inactive)
GI50 (SK-MEL-28): 18.9 µM (inactive)
GI50 (UACC-257): 22.6 µM (inactive)
GI50 (SK-MEL-5): > 10 µM (inactive)
GI50 (A549): 24 µM (inactive)
GI50 (IGROV-1): 23.1 µM (inactive)
GI50 (KM12): 13.5 µM (inactive)
